Test results from paper PMC8512853, “Synthesis, Bioactivity, Pharmacokinetic and Biomimetic Properties of Multi-Substituted Coumarin Derivatives” (Molecules, 2021).

Tests used:
[1] = Inhibition of AAPH induced linoleic acid oxidation (lipid peroxidation)
Excerpt: AAPH induced linoleic acid oxidation has been developed as a quick and reliable antioxidant activity assay. It is based on the inhibition of linoleic acid oxidation, initiated by the thermal free radical producer 2,2′-azobis(2-amidinopropane) dihydrochloride (AAPH), providing a measure of how efficiently antioxidants protect against lipid oxidation in vitro. Oxidation of exogenous linoleic acid by AAPH is followed by UV spectrophotometry at 234 nm in a highly diluted sample [38].
For the reference sample in a UV cuvette, 10 μL of the test sample (100 μM diluted in DMSO), 10 μL linoleic acid (LA) (16 mM), and buffer solution (pH 7.4) were added to a final volume of 1ml. For the measurement sample, in a UV cuvette, 10 μL of test sample, 50 μL AAPH (40 mM), 10 μL LA, and buffer solution were added to a final volume of 1 mL. Standard and blank samples were prepared in the same way using DMSO (solvent) instead of the tested coumarin analogues. The absorbance was measured after 2 min at 37 °C at 234 nm. Results were obtained via the following Equation (5):(5) %Inhibition=(Standard−Blank)−(Reference Sample−Measurement Sample)/(Standard−Blank) × 100

[2] = IAM chromatography (IAM.PC.DD.2 column) and estimated human oral absorption; type: in vitro ADME; details: for %HOA estimated human oral absorption: Equation (1) from logkw and physicochemical properties; for logkw (IAM retention factor): pH 7.40, IAM.PC.DD.2, intercept at pure aqueous phase
Description: The immobilized artificial membrane (IAM) chromatographic behavior of the 25 novel coumarin derivatives was studied. IAM stationary phases consisting of monolayers of phospholipids (e.g., phosphatidylcholine, PC) immobilized on a propylamine–silica support can simulate interactions of chemicals with cell membranes.
Using an IAM.PC.DD2 column (Regis Technologies) as the stationary phase with PBS as the mobile phase at pH = 7.40, and a flow rate of 3 mL/min in the presence of acetonitrile fractions (C%) of 10%, 15%, 20%, 25%, and 30%, a logkC% value was obtained via the retention time for each concentration of CH3CN. Retention factors were then used to plot logkC% as a function of acetonitrile fraction. The intercept of the linear regression corresponds to the logkw, corresponding to pure aqueous phase.
(1) % HOA=100/1+10^−(2.17+0.88*logkw−0.006*MW−0.83*A−0.53*F^*++1.18*F^*−)
(§1) The physicochemical and biomimetic properties of the new coumarin analogues were studied using liquid chromatography (HPLC) in 220–230 nm Two types of chromatographic columns were used: (i) immobilized artificial membrane (IAM) ([…].PC.DD.2, Regis Technologies) column and (ii) human serum albumin (HSA) (CHIRAL PAK) column.
(§2) The training set consisted of 25 neutral and slightly acidic compounds. Their IAM retention factors were measured at pH 7.40 on a IAM.PC.DD.2 column. The mobile phase consisted of acetonitrile solvent (CH3CN) in various concentrations (10%, 15%, 20%, 25%, 30%) and a flow rate of 3 mL/min was selected. Their HSA retention factors were measured at pH 7.00 on HSA column. The mobile phase consisted of acetonitrile solvent (CH3CN) in 10% concentration and a flow rate of 1 mL/min was selected.
(§3) The different pH values (7.00 for HSA and 7.40 for IAM) were measured with an electronic pH meter MP125 and were achieved by preparing suitable buffers of phosphates and chlorides (0.12 g KH2PO4, 0.72 g Na2HPO4·2H2O, 4.00 g NaCl and 0.10 g KCl). Sodium citrate solution was used to determine the dead time, which was deducted from the results at the end of measurements. The elution time of each coumarin analogue was measured at least three times. Retention times were converted into logk values, which represent the logarithm of the retention indexes, using Equation (8). (8) logk=log(tr−t0/t0) where tr is the retention time of the coumarin derivative and t0 is the dead time.

[3] = biological target: T1, human serum albumin (HSA) (Homo sapiens, UniProt P02768); test: HSA chromatography and estimated plasma protein binding; type: in vitro ADME; details: for fraction unbound: human, immobilized human serum albumin (HSA) column, Equation (2) from logk10, pH 7.00, read-out: %PPB estimated plasma protein binding (converted); for logk10 (HSA retention factor): pH 7.00, 10% acetonitrile
T1 construct: purchased CHIRAL PAK
T1 sequence (P02768 25-609): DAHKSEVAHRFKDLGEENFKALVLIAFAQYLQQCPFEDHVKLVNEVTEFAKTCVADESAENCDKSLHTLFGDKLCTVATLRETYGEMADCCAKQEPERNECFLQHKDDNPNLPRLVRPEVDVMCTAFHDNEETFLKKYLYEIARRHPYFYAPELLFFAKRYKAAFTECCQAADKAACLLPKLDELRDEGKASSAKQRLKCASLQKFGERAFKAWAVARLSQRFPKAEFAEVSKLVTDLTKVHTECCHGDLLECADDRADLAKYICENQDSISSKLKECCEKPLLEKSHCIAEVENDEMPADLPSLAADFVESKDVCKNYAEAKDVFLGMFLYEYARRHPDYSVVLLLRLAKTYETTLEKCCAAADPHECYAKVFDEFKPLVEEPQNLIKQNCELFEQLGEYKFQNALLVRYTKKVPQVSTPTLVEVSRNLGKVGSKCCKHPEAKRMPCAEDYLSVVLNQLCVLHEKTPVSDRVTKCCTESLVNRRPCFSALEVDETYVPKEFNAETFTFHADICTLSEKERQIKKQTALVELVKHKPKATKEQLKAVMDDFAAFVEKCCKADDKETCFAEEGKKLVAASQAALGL
Description: The novel coumarin derivatives were also studied using the immobilized protein column HSA. An HSA chromatographic column provides estimates on the binding affinities of chemicals to human serum albumin, which is the most abundant plasma protein and is related to drug efficacy, drug—drug pharmacokinetic interactions, and drug safety. HSA binding can be considered to represent almost the total plasma protein binding of a drug.
Retention factors on the HSA stationary phase were measured using as eluent PBS at pH = 7.00 and a flow rate of 1 mL/min in the presence of 10% acetonitrile.
(2) % PPB=101∗10^logk10/1+10^logk10
as §1, §2, §3

A375 cells = test: MTT cytotoxicity assay, A375; type: cell-based, human; details: Homo sapiens, A-375, 24 h, A375, 100 μΜ, read-out: Cell Toxicity A375 % (100 μΜ)
Description: (§4) Furthermore, the coumarin compounds synthesized in this study were also evaluated for their cytotoxicity against A549 (adenocarcinomic human alveolar basal epithelial cells) and A375 (human melanoma) cell lines.
(§5) This protocol was used for the evaluation of cell viability and all the cell lines. It must be noted that this assay describes the count of cells that remain alive after the treatment. For the experimental procedure a standard solution of MTT 1mg/mL in PBS was prepared which after filtration ([…] filter (Millipore, Carrigtwohill, Ireland)) was stored in the dark (4–8 °C) until use. In a 96-well plate, HaCaT, A549 and A375 cells were seeded in a number of 30 × 10^4 cells/well for each evaluation series respectively. The cells were incubated (37 °C, 5% CO2) for 24 h, followed by the addition of the tested analogues (100 μM, diluted in DMEM) and another 24-h incubation. Next, appropriate amount of MTT was added in the tested wells and the plate returned to the incubator for the next 4 h for the formation of the formazan crystals. The formazan crystals were then redissolved by adding DMSO (100 μL) and stirring lightly for 40 min, after which the absorbance was measured in a plate reader at 540 nm with a reference absorbance of 720 nm.
(§6) All samples were tested in triplicate, against a control (only cells), blank (no cells), and positive control (100 μM standard silibinin solution was used as a “cell-killing” standard).

A549 cells = test: MTT cytotoxicity assay, A549; type: cell-based, human; details: 24 h; for cytotoxicity at 100 µM: Homo sapiens, A549, 100 μΜ, read-out: Cell Toxicity A549 % (100 μΜ)
Description: as §4, §5, §6

CC(=O)Oc1ccc(-c2c(C)c3cc(Cl)ccc3oc2=O)cc1 [Compound 3j, 3-(4-acetyloxyphenyl)-6-chloro-4-methyl-chromen-2-one]
AAPH % inhibition (100 μΜ) [1]: no | %HOA estimated human oral absorption [2]: 99.9% | logkw (IAM retention factor) [2]: 3.06 | fraction unbound [3]: 0.088 | logk10 (HSA retention factor) [3]: 0.97 | cytotoxicity at 100 µM (A375 cells): 50 to 60% | Cell Toxicity A549 % (100 μΜ) (A549 cells): no

CC(=O)Oc1ccc(-c2c(C)c3cc(Br)cc(Br)c3oc2=O)cc1 [Compound 3k, 3-(4-acetyloxyphenyl)-6,8-dibromo-4-methyl-chromen-2-one]
AAPH % inhibition (100 μΜ) [1]: inactive and no | %HOA estimated human oral absorption [2]: 99.9% | logkw (IAM retention factor) [2]: 3.91 | fraction unbound [3]: 0.013 | logk10 (HSA retention factor) [3]: 1.63 | cytotoxicity at 100 µM (A375 cells): 28.8% | Cell Toxicity A549 % (100 μΜ) (A549 cells): no

CC(=O)Oc1ccc(-c2c(C)c3ccccc3oc2=O)cc1OC(C)=O [Compound 3l, 3-(4,5-diacetyloxyphenyl)-4-methyl-chromen-2-one]
IC50 [1]: 85.5 µM | %HOA estimated human oral absorption [2]: 99.4% | logkw (IAM retention factor) [2]: 2.43 | fraction unbound [3]: 0.401 | logk10 (HSA retention factor) [3]: 0.16 | cytotoxicity at 100 µM (A375 cells): 40.4% | Cell Toxicity A549 % (100 μΜ) (A549 cells): no

CC(=O)Oc1ccc(-c2c(C)c3cc(Br)ccc3oc2=O)cc1OC(C)=O [Compound 3m, 3-(4,5-diacetyloxyphenyl)-6-bromo-4-methyl-chromen-2-one]
IC50 [1]: 37.1 µM | %HOA estimated human oral absorption [2]: 99.6% | logkw (IAM retention factor) [2]: 3.21 | fraction unbound [3]: 0.105 | logk10 (HSA retention factor) [3]: 0.89 | cytotoxicity at 100 µM (A375 cells): 33.3% | Cell Toxicity A549 % (100 μΜ) (A549 cells): no

CC(=O)Oc1ccc(-c2c(C)c3cc(Cl)ccc3oc2=O)cc1OC(C)=O [Compound 3n, 3-(4,5-diacetyloxyphenyl)-6-chloro-4-methyl-chromen-2-one]
IC50 [1]: 84.3 µM | %HOA estimated human oral absorption [2]: 99.7% | logkw (IAM retention factor) [2]: 3.04 | fraction unbound [3]: 0.145 | logk10 (HSA retention factor) [3]: 0.74 | cytotoxicity at 100 µM (A375 cells): 11.5% | Cell Toxicity A549 % (100 μΜ) (A549 cells): no

CC(=O)Oc1ccc(-c2c(C)c3cc(Br)cc(Br)c3oc2=O)cc1OC(C)=O [Compound 3o, 3-(4,5-diacetyloxyphenyl)-6,8-dibromo-4-methyl-chromen-2-one]
IC50 [1]: 77.2 µM | %HOA estimated human oral absorption [2]: 99.6% | logkw (IAM retention factor) [2]: 3.79 | fraction unbound [3]: 0.201 | logk10 (HSA retention factor) [3]: 0.58 | cytotoxicity at 100 µM (A375 cells): 45.6% | Cell Toxicity A549 % (100 μΜ) (A549 cells): no

Cc1c(-c2ccccc2Cl)c(=O)oc2cccc(O)c12 [Compound 4a, 3-(2-chlorophenyl)-5-hydroxy-4-methyl-chromen-2-one]
AAPH % inhibition (100 μΜ) [1]: no | %HOA estimated human oral absorption [2]: 100% | logkw (IAM retention factor) [2]: 4.09 | fraction unbound [3]: 0.13 | logk10 (HSA retention factor) [3]: 0.79 | cytotoxicity at 100 µM (A375 cells): 33.1% | cytotoxicity at 100 µM (A549 cells): 64.7%

Cc1c(-c2cccc(Cl)c2)c(=O)oc2cccc(O)c12 [Compound 4b, 3-(3-chlorophenyl)-5-hydroxy-4-methyl-chromen-2-one]
AAPH % inhibition (100 μΜ) [1]: no | %HOA estimated human oral absorption [2]: 99.9% | logkw (IAM retention factor) [2]: 3.73 | fraction unbound [3]: 0.201 | logk10 (HSA retention factor) [3]: 0.58 | cytotoxicity at 100 µM (A375 cells): 52.8% | Cell Toxicity A549 % (100 μΜ) (A549 cells): no

Cc1c(-c2ccc(Cl)cc2)c(=O)oc2cccc(O)c12 [Compound 4c, 3-(4-chlorophenyl)-5-hydroxy-4-methyl-chromen-2-one]
IC50 [1]: 86.6 µM | %HOA estimated human oral absorption [2]: 100% | logkw (IAM retention factor) [2]: 4.53 | fraction unbound [3]: 0.152 | logk10 (HSA retention factor) [3]: 0.72 | cytotoxicity at 100 µM (A375 cells): 22.2% | cytotoxicity at 100 µM (A549 cells): 54.5%

Cc1c(-c2ccccc2F)c(=O)oc2cccc(O)c12 [Compound 4d, 3-(2-fluorophenyl)-5-hydroxy-4-methyl-chromen-2-one]
AAPH % inhibition (100 μΜ) [1]: 0.0% | %HOA estimated human oral absorption [2]: 100% | logkw (IAM retention factor) [2]: 4.69 | fraction unbound [3]: 0.152 | logk10 (HSA retention factor) [3]: 0.72 | cytotoxicity at 100 µM (A375 cells): 11.5% | cytotoxicity at 100 µM (A549 cells): 75.7%

Cc1c(-c2cccc(F)c2)c(=O)oc2cccc(O)c12 [Compound 4e, 3-(3-fluorophenyl)-5-hydroxy-4-methyl-chromen-2-one]
AAPH % inhibition (100 μΜ) [1]: 31.0% | %HOA estimated human oral absorption [2]: 99.9% | logkw (IAM retention factor) [2]: 3.23 | fraction unbound [3]: 0.034 | logk10 (HSA retention factor) [3]: 1.34 | cytotoxicity at 100 µM (A375 cells): 43.1% | cytotoxicity at 100 µM (A549 cells): 52.3%

Cc1c(-c2ccc(F)cc2)c(=O)oc2cccc(O)c12 [Compound 4f, 3-(4-fluorophenyl)-5-hydroxy-4-methyl-chromen-2-one]
IC50 [1]: 86.8 µM | %HOA estimated human oral absorption [2]: 99.7% | logkw (IAM retention factor) [2]: 2.62 | fraction unbound [3]: 0.163 | logk10 (HSA retention factor) [3]: 0.68 | cytotoxicity at 100 µM (A375 cells): 45.4% | cytotoxicity at 100 µM (A549 cells): 62.5%

Cc1c(-c2ccc(O)cc2)c(=O)oc2ccccc12 [Compound 4h, 3-(4-hydroxyphenyl)-4-methyl-chromen-2-one]
AAPH % inhibition (100 μΜ) [1]: no | %HOA estimated human oral absorption [2]: 99.8% | logkw (IAM retention factor) [2]: 3.34 | fraction unbound [3]: 0.03 | logk10 (HSA retention factor) [3]: 1.38 | cytotoxicity at 100 µM (A375 cells): 12.6% | cytotoxicity at 100 µM (A549 cells): 33.7%

Cc1c(-c2ccc(O)cc2)c(=O)oc2ccc(Br)cc12 [Compound 4i, 6-bromo-3-(4-hydroxyphenyl)-4-methyl-chromen-2-one]
IC50 [1]: 70.7 µM | %HOA estimated human oral absorption [2]: 99.9% | logkw (IAM retention factor) [2]: 3.23 | fraction unbound [3]: 0.043 | logk10 (HSA retention factor) [3]: 1.26 | cytotoxicity at 100 µM (A375 cells): 6.48% | cytotoxicity at 100 µM (A549 cells): 21.7%
